Experimental data reported in article PMC8259862, “Latency, thermal stability, and identification of an inhibitory compound of mirolysin, a secretory protease of the human periodontopathogen Tannerella forsythia” (Journal of Enzyme Inhibition and Medicinal Chemistry, 2021).
Values joined by “and” are separate entries in the source; they are usually repeats but may differ in a detail not shown here. Equal entries are not always repeated.

Assays:
[1] = biological target: Arg-specific gingipains, Rgp; design: method as in PMID 15361547; details: cited from earlier work
[2] = biological target: Lys-specific gingipain, Kgp; design: method as in PMID 15361547; details: cited from earlier work
human thrombin = biological target: T1, human thrombin (Homo sapiens, UniProt P00734); experiment: Screening of compound specificity: thrombin; format: biochemical; details: 100 nM protease, 100 M excess of compound, Azocoll
T1 construct: purchased Merck Sigma-Aldrich
Description: (§1) The residual proteolytic activity was determined employing Azocoll (12 mg/ml) or, for gingipains only, FTC-casein (50 µg/ml), as described above.

mirolysin [3] = biological target: T2, mirolysin (Tannerella forsythia, UniProt A0A0F7IPS1); experiment: Determination of inhibition constant (Ki) and mode of inhibition (FTC-casein); format: biochemical; details: for mode of inhibition: Lineweaver-Burk plot
T2 sequence (A0A0F7IPS1 entry or part of it): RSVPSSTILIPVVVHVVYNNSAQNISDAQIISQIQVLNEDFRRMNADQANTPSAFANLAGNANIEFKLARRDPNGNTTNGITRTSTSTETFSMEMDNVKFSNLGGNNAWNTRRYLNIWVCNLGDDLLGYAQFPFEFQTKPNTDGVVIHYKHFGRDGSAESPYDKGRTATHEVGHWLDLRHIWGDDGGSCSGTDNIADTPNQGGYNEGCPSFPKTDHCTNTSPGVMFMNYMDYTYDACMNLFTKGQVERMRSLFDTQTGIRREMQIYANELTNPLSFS
Description: After 15 min of incubation at 37 °C, 100 µl fluorogenic protein substrate FTC-casein was added at different concentrations (5–120 µg/ml), and the residual proteolytic activity was recorded. The mode of inhibition of target proteases by the compounds was determined graphically using the Lineweaver–Burk plot using Equation (2): (2) 1/V=Km/Vmax×1/[S]+1/Vmax where V is the reaction velocity, Vmax is the maximum V, Km is the Michaelis–Menten constant, and [S] is the substrate concentration. The Ki was determined using a macro for competitive inhibition from GraphPad Prism software (La Jolla, CA, USA) and Equation (3): (3) V=Vmax×[S]/Kmobs+[S]; Kmobs=Km×(1+[I]/Ki) where Kmobs is the Michaelis–Menten constant in the presence of inhibitor, and [I] is the inhibitor concentration.

mirolysin [4] = biological target: T2, mirolysin; experiment: Determination of KD by microscale thermophoresis; format: binding
Description: The Monolith NT.115 instrument (NanoTemper) was used to analyse binding interactions between mirolysin and compounds 9, 10, and 21. Lysine residues of mirolysin were fluorescently labelled with the Monolith NT Protein Labelling Kit RED-NHS-Red dye (NanoTemper), strictly according to the manufacturer’s instruction (a 7 M excess of dye was used). Compounds at concentrations ranging from 1.5 to 25 000 nM were incubated for 5 min at 20 °C with 20 nM mirolysin. Experiments were performed in 0.1 M Tris, 0.15 M NaCl, 5 mM CaCl2, 0.05% Pluronic-F127, 0.02% NaN3, pH 7.5. Samples were loaded into Monolith NT.115 Standard Treated glass capillaries (NanoTemper), and an initial fluorescence measurement followed by a thermophoresis measurement was carried out using 80% LED power and high microscale thermophoresis (MST) power. KD values were calculated using MO. Affinity Analysis software (NanoTemper). Each experiment was performed in triplicate.

mirolysin [5] = biological target: T2, mirolysin; experiment: Screening of compound specificity: mirolysin; format: biochemical; details: read-out: decrease in mirolysin activity
Description: as §1

human plasmin = biological target: T3, human plasmin (Homo sapiens, UniProt P00747); experiment: Screening of compound specificity: plasmin; format: biochemical; details: 100 nM protease, 100 M excess of compound, Azocoll
T3 construct: purchased Merck Sigma-Aldrich
T3 sequence (P00747 581-810 limits assumed): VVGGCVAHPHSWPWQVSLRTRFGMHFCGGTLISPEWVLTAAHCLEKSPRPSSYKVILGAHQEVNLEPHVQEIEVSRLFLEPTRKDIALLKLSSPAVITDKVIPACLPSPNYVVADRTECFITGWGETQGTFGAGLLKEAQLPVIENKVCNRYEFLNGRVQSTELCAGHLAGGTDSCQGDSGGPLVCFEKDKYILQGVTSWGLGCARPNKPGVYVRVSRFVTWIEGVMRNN
T3 sequence (P00747 97-580 partner limits assumed): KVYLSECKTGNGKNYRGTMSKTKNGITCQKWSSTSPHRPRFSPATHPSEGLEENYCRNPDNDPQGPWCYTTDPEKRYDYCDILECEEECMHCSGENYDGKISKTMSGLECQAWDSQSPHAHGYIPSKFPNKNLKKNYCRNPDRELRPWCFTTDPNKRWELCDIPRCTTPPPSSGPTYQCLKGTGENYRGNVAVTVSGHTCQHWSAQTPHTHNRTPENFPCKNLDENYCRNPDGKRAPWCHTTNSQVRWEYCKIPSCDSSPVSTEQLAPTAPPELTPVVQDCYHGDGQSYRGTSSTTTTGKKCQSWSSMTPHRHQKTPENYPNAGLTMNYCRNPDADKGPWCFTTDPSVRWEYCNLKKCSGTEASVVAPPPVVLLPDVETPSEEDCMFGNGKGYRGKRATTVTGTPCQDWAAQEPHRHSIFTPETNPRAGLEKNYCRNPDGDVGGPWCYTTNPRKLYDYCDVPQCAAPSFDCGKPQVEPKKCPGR
Description: as §1

mirolysin [6] = biological target: T2, mirolysin; experiment: Dose-dependent inhibition of mirolysin (Azocoll); format: biochemical
Description: (§2) Mirolysin activity was routinely determined in assay buffer (50 mM Tris, 150 mM NaCl, 5 mM CaCl2, 0.02% NaN3, pH 7.5) supplemented with 0.05% Pluronic F-127, employing Azocoll or FTC-caseins as a substrate. Briefly, an Azocoll suspension was added to the sample in Eppendorf tubes and vigorously shaken for 15 min–2 h at 37 °C. Undigested Azocoll was removed by centrifugation (16,100 × g, 5 min, 4 °C), and the absorbance at 410 nm was measured using a Sunrise absorbance microplate reader (Tecan, Männedorf, Switzerland). In the case of FTC-casein, analysed samples were transferred into wells of a black microtiter plate (Nunc, Roskilde, Denmark), and then the FTC-casein solution was added. Proteolytic activity was recorded as an increase in fluorescence (excitation/emission = 485/538 nm) over time using a SpectraMax Gemini EM reader (Molecular Devices, San Jose, CA, USA).
Mirolysin (0.1 µM) was incubated with increasing concentrations of compounds (0–100 µM) in 50 µl assay buffer (50 mM Tris, 0.15 M NaCl, 5 mM CaCl2, 0.02% NaN3, pH 7.5) for 15 min at 37 °C, before 200 µl Azocoll suspension (15 mg/ml in assay buffer) was added.

mirolysin [7] = biological target: T2, mirolysin; experiment: Screening round II: inhibitory activity of the 21 fragments against mirolysin (FTC-casein); format: biochemical; details: molar ratio 50:1 (compound:enzyme), read-out: reduction of mirolysin activity (screening round II)
Description: as §2
Mirolysin (40 nM) was mixed with each of the 21 compounds (2 µM) (Supplementary Table 1) in assay buffer (50 mM Tris, 150 mM NaCl, 5 mM CaCl2, 0.02% NaN3, 0.05% Pluronic F-127, pH 7.5) in a 96-well plate (total volume, 100 µl). After 15 min at 37 °C, 100 µl of the substrate solution FTC-casein (100 µg/ml) was added, and substrate hydrolysis was monitored. The percentage of inhibition was determined relative to the sample containing the enzyme without any compound added (control sample). […]

Kgp = biological target: T4, Kgp (Porphyromonas gingivalis, UniProt B2RLK2); experiment: Screening of compound specificity: Kgp; format: biochemical; details: 100 nM protease, 100 M excess of compound, FTC-casein
T4 construct: made in house
Description: as §1

mirolysin [8] = biological target: T2, mirolysin; experiment: 2D NMR titration of 15N-labelled mirolysin (KD); format: binding; details: KD by NMR titration, estimated from peaks in fast exchange, 298 K
Description: The custom-selected Maybridge diversity library of 1500 fragments was screened using the saturation transfer difference (STD) ligand-based approach, with fragments pooled into cocktails of five fragments each. STD spectra were recorded at a concentration of 10 µM mirolysin, with the final concentration of each fragment in the sample at 1 mM. D6-DMSO was used for the lock signal. STD experiments used alternating on- and off-resonance saturation (2s saturation, Gaussian pulse, +0.6 ppm, −5 ppm, 128 scans) with water suppression using a double-pulsed-field gradient spin-echo (DPFGSE) watergate W5 double-echo sequence[32]^,[33]. Spectra were compared with a reference containing d6-DMSO only. […] Hits identified using STD–NMR, based on the intensity ratio of ligand signals between the STD experiment and a 1D reference spectrum, were validated using ^1H,^15N heteronuclear single quantum coherence (HSQC) experiments with water flip back and watergate water suppression[34]^,[35], with spectra assessed for chemical shift perturbations (CSPs) relative to a control containing d6-DMSO. […] Spectra were recorded with 40 scans, and a ^1H spectral width of 9615.4 Hz and a ^15N spectral width of 2128.9 Hz, with 2048 and 256 complex points, respectively. All experiments were recorded at 298 K using a Bruker Avance 600 MHz spectrometer (^1H frequency, 600 MHz) equipped with a 5 mm QCI cryoprobe.

forsilysin = experiment: Screening of compound specificity: forsilysin; format: biochemical, Tannerella forsythia; details: 100 nM protease, 100 M excess of compound, Azocoll
Description: as §1

promirolysin (proM^wt) = experiment: Effect of compounds on promirolysin autoprocessing (activation in cis); format: biochemical, Tannerella forsythia
Description: ProM^wt (70 µM) was activated at 37 °C in 5 mM Tris, 50 mM NaCl, 0.02% NaN3, pH 8.0, alone or in the presence of a […] excess of different compounds. At specific time points, aliquots were withdrawn and analysed by SDS–PAGE (10% gels; 4 µl sample, preincubated with 1:1 (vol:vol) of 20 mM 1,10-phenanthroline for 5 min at room temperature), and measured in a proteolytic activity assay, employing FTC-casein (25 µg/ml) as a substrate.

karilysin = biological target: T5, karilysin (Tannerella forsythia, UniProt D0EM77); experiment: Screening of compound specificity: karilysin; format: biochemical; details: 100 nM protease, 100 M excess of compound, Azocoll
T5 construct: made in house
T5 sequence (D0EM77 35-472): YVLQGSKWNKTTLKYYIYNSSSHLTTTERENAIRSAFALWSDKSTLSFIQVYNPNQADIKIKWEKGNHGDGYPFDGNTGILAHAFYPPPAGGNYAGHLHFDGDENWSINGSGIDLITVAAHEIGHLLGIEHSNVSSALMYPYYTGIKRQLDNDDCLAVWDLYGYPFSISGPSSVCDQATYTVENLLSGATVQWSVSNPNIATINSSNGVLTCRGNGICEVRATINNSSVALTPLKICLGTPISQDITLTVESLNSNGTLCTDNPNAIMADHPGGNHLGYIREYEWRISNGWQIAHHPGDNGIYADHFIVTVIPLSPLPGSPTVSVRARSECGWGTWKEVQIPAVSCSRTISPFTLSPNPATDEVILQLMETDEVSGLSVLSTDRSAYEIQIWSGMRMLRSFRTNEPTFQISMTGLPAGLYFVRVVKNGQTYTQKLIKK
Description: as §1

bovine trypsin = biological target: T6, bovine trypsin (Bos taurus, UniProt P00760); experiment: Screening of compound specificity: trypsin; format: biochemical; details: 100 nM protease, 100 M excess of compound, Azocoll
T6 construct: purchased Merck Sigma-Aldrich
T6 sequence (P00760 24-246): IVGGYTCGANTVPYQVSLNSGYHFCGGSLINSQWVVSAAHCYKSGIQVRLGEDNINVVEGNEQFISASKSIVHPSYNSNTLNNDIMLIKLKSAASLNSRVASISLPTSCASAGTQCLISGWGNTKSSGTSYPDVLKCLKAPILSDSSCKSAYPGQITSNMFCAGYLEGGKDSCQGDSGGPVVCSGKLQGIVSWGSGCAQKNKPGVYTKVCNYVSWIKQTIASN
Description: as §1

RgpB = biological target: T7, RgpB (Porphyromonas gingivalis, UniProt P95493); experiment: Screening of compound specificity: RgpB; format: biochemical; details: 100 nM protease, 100 M excess of compound, FTC-casein
T7 construct: His; made in house
T7 sequence (P95493 230-736): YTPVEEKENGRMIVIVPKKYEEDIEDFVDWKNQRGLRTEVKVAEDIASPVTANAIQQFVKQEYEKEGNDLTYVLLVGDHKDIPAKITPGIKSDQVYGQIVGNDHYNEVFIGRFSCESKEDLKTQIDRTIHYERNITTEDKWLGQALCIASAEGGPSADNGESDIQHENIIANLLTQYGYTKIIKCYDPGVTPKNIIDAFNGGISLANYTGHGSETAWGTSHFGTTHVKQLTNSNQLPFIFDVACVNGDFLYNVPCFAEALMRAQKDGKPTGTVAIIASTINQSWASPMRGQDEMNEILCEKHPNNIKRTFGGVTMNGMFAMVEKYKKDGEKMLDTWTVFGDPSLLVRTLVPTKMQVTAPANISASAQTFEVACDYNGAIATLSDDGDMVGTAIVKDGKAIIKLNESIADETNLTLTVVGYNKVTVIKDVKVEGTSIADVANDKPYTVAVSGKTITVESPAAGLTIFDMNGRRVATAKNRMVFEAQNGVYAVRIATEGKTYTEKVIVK
Description: as §1

mirolase = experiment: Screening of compound specificity: mirolase; format: biochemical, Tannerella forsythia; details: 100 nM protease, 100 M excess of compound, Azocoll
Description: as §1

[9] = […] excess of compound, FTC-casein

## CN(C)C(=O)[C@H](CCCCN)NC(=O)C(=O)[C@H](CCCN=C(N)N)NC(=O)[C@H](CCCCN)NC(=O)OCc1ccccc1 [Kyt-1]
[1]
  Ki: 0.00013 µM

## CN(NC(=O)CC[C@H](NC(=O)OCc1ccccc1)C(=O)N[C@@H](CCCCN)C(=O)C(=O)NCc1ccccc1)c1ccccc1 [Kyt-36]
[2]
  Ki: 0.075 nM

## NCc1cccc2nsnc12 [cpd 9]
Human thrombin
  effect on thrombin activity: almost completely unaffected
Human thrombin; listed as Cpd 9
  effect on thrombin activity: did not affect
Mirolysin [3]
  Ki: 3.2 µM
  mode of inhibition: reversible competitive inhibitors
Mirolysin [4]
  Kd: 1.1 µM
Mirolysin [5]
  inhibition at 10 µM: 50%
Human plasmin
  effect on plasmin activity: almost completely unaffected
Human plasmin; listed as Cpd 9
  effect on plasmin activity: did not affect
Mirolysin [6]
  IC50: 2.3 µM
Mirolysin [7]
  inhibition at 2 µM: 10 to 20%
Kgp
  effect on Kgp activity: almost completely unaffected
Kgp; listed as Cpd 9
  effect on Kgp activity: did not affect
Mirolysin [8]
  Kd: 72.2 µM and 72 µM
forsilysin
  effect on forsilysin activity: almost completely unaffected
forsilysin; listed as Cpd 9
  effect on forsilysin activity: did not affect
Promirolysin (proM^wt); [9]
  effect on proteolytic activity in aliquots during proM^wt activation: significantly decreased
  reduction of mirolysin activity after 216 h of proM^wt activation: 30%
Promirolysin (proM^wt); proM^wt 70 µM, 50 M excess of compound, 37 °C, 216 h
  effect on proM^wt maturation (35 kDa zymogen to 31 kDa form, SDS-PAGE): significantly slowed
Promirolysin (proM^wt); proM^wt 70 µM, 50 M excess of compound, 37 °C, SDS-PAGE
  time to complete proM^wt maturation: > 216 h
karilysin
  effect on karilysin activity: almost completely unaffected
karilysin; listed as Cpd 9
  effect on karilysin activity: did not affect
Bovine trypsin
  effect on trypsin activity: almost completely unaffected
Bovine trypsin; listed as Cpd 9
  effect on trypsin activity: did not affect
RgpB
  effect on RgpB activity: almost completely unaffected
RgpB; listed as Cpd 9
  effect on RgpB activity: did not affect
mirolase
  effect on mirolase activity: almost completely unaffected
mirolase; listed as Cpd 9
  effect on mirolase activity: did not affect

## NCc1cccc(-c2ccco2)c1 [cpd 10]
Human thrombin
  effect on thrombin activity: almost completely unaffected
Mirolysin [3]
  Ki: 22 µM
  mode of inhibition: reversible competitive inhibitors
Mirolysin [4]
  Kd: 9.7 µM
Mirolysin [5]
  inhibition at 10 µM: 20%
Human plasmin
  effect on plasmin activity: almost completely unaffected
Mirolysin [6]
  IC50: 6.6 µM
Mirolysin [7]
  inhibition at 2 µM: 10 to 20%
Kgp
  effect on Kgp activity: almost completely unaffected
Mirolysin [8]
  Kd: 278 µM
forsilysin
  effect on forsilysin activity: almost completely unaffected
karilysin
  effect on karilysin activity: almost completely unaffected
Bovine trypsin
  effect on trypsin activity: almost completely unaffected
RgpB
  effect on RgpB activity: almost completely unaffected
mirolase
  effect on mirolase activity: almost completely unaffected
